The source of these data is patent publication US20240390355A1, “IRHOM2 INHIBITORS AND USES THEREOF” (NEW YORK SOCIETY FOR THE RELIEF OF THE RUPTURED AND …, priority 2021, published 2024).

pIC50: −log10 of the molar value.

What all share (type): cell-based
Test [1] relates to TNFα release from THP-1 cells. As to the kind of experiment: Primary screen (Example 1a): LPS-stimulated TNFα release from THP-1 cells, HTRF. As to conditions: Homo sapiens, 100 ng/mL LPS, 3 h, normalised to 50 μM Batimastat, read-out: Primary Screen XC50 TNFα. Here is the method:
(§1) Two separate screens to identify novel small molecule inhibitors of iRhom2/ADAM17 activity were developed. […] Therefore, the primary screen for small molecule inhibitors of iRhom2/ADAM17 was a screen for inhibitors that blocked the release of TNFα from LPS-stimulated THP-1 human myeloid cells, a process that depends on iRhom2 and ADAM17. Since the release of TNFα from THP-1 cells can be blocked at many stages of the LPS/TLR4/iRhom2/ADAM17 pathway, a secondary screen was performed for another iRhom2/ADAM17 selective substrate, Kit-ligand 2 (KL-2) (Maretzky T et al. (July 2013), “iRhom2 controls the substrate selectivity of stimulated ADAM17-dependent ectodomain shedding”, PNAS 110(28): 11433-11438) in a different human cell type, human embryonic kidney cells (HEK 293).
THP-1 cells were plated in 384 or 1,536 wells and transferred on the ultra-high throughput screening (uHTS) platform Mark III, and TNFα shedding was initiated by LPS stimulation of THP-1 cells. The extent of released TNFα was detected with the corresponding HTRF antibodies labeled with europium cryptate (donor) and d2 (acceptor). The HTRF signal was generated by proximity of europium cryptate and d2. All detection reagents were purchased from Cisbio. TNFα detection was performed according to the manufacturer's protocol (Product Insert for Cisbio TNFα (h) Kit Part #62HTNFAPEG & 62HTNFAPEH;
7.5 nL compound and controls in DMSO [10 μM in assay; 0.25% DMSO in 3 [μL Assay] were dissolved in 2 μL cell suspension [2.4E6/mL; 4800 cells/well; culture w/o PenStrep], pre-incubated at 37° C., 5% CO2, for 15 min with 1 μL LPS [100 ng/mL in 3 μL assay]. The cells were incubated at 37° C., 5% CO2, for 3 h with 2 μL of the HTRF-mix [1:300 f.c.]. After an incubation at room temperature for 2 h or longer, the HTRF readout was performed. Then data evaluation for normalization against the 50 μM Batimastat control (=100% […]) was applied. As an additional control, 300 nM Batimastat was used to monitor performance of cells and assay sensitivity over time.
(In general: In TR-FRET formats the signal depends on donor and acceptor labels being close together.)

Test [2] concerns KL2 release from HEK-293 cells. As to the kind of experiment: Secondary screen (Example 3a): PMA-stimulated KL2 release from HEK-293 cells, AP readout. As to conditions: Homo sapiens, HEK293, HEK-293 cells expressing KL2-AP, PMA 500 ng/mL, 2 h, read-out: Secondary Screen XC50 KL2. Here is the method:
as §1
(§2) First, expression plasmids for alkaline phosphatase (AP)-fused KL2 and TGFα were designed and generated through gene synthesis followed by subcloning into the pcDNA3.1(+)/Hygro expression vector. […] Subsequently, DNA amplifications were performed to obtain sufficient amounts of the expression vectors. The quality of DNA and gene sequences were confirmed through restriction digest and Sanger sequencing. In parallel, cell culture of THP-1 and HEK-293 cells was initiated. Master and working cell banks were prepared. Both cell lines were scaled up and transfected with the respective constructs by electroporation. During cell culturing, cell density and viability were monitored to ensure optimal conditions for the transfections. After PMA stimulation, AP-coupled KL2 or TGFα were detected by measurement of AP activity in the supernatant. […] In contrast, THP-1 cells turned out to be not a suitable transfection host resulting in a loss of cell viability after transfection. The decision was made to proceed with HEK-293 for both selectivity assays and to establish polyclonal cell lines stably expressing AP-coupled KL2 or TGFα.
(§3) After electroporation, cells were further cultured in presence of selection antibiotics, hygromycin B, to generate stably transfected polyclonal cell pools. For both assays, KL2 and TGFα shedding, the respective selected pool turned out to be suitable. Final assay conditions were determined for the selected pools. For all experiments, batimastat (30 μM) was used as positive control for full inhibition of KL2 or TGFα shedding.
(§4) 60 μL of cells (40,000/well) were added to a sterile 384-well plate. After incubation overnight at 37° C. (5% CO2), 50 μL medium were removed and 20 μL of prediluted compounds were added to the cells. After incubation for 15 min, 20 μL of PMA (500 ng/mL final conc.) were added. The cells were incubated for 2 h at 37° C. (5% CO2). Then, 20 μL of the supernatant was transferred to a fresh plate and 20 μL of pNPP (5 mM final conc.) was added. AP reaction was performed for 1 h at RT. The reaction was stopped by addition of 20 μL of NaOH (1 M final conc.) and the absorbance of pNP was measured at 405 nm.

Test [3] deals with TGFα release from HEK-293 cells. As to the kind of experiment: Counter screen (Example 4a): PMA-stimulated TGFα release from HEK-293 cells, AP readout. The conditions noted are these: Homo sapiens, HEK293, HEK-293 cells expressing TGFα-AP, PMA 100 ng/mL, 2 h, read-out: Counter Screen XC50 TGFα. Here is the method: A tertiary counterscreen was also performed to monitor the release of TGFα, which is a substrate of iRhom1/ADAM17 and iRhom2/ADAM17, so its release should not be blocked by an iRhom2-selective inhibitor (Maretzky T et al. (July 2013), “iRhom2 controls the substrate selectivity of stimulated ADAM17-dependent ectodomain shedding”, PNAS 110(28): 11433-11438; and Li X et al. (May 2015), “iRhoms 1 and 2 are essential upstream regulators of ADAM17-dependent EGFR signaling”, PNAS 112(19): 6080-6085).
as §2, §3
as §4, with “of cells (20,000/well) were added” for “of cells (40,000/well) were added”, “of PMA (100 ng/mL final” for “of PMA (500 ng/mL final”, “was added. The AP reaction” for “was added. AP reaction”
In general terms: Counterscreens check selectivity or assay interference.

With `Cc1ccccc1C(=O)N1CCC(Cc2ccccc2)CC1` [Compound 1], the pIC50 in test [1] is 4.99; in test [2] it was 5.59; in test [3] it was below 3.89.
As for `O=C(c1cccs1)N1CCC(Cc2ccccc2)CC1` [Compound 2], the pIC50 in test [1] was above 6.10; in test [2], below 3.89; in test [3], below 3.89.
`Cc1ccccc1C(=O)N1CCN(Cc2ccccc2)CC1` [Compound 3]: the pIC50 in test [1] is 4.91; in test [2] it was below 3.89; in test [3], below 3.89.
`O=C(c1c(Cl)cccc1Cl)N1CCN(Cc2ccc3c(c2)OCO3)CC1` [Compound 4]: the pIC50 in test [1] was 4.51; in test [2], below 3.89; in test [3] it was below 3.89.
In the case of `Cc1ccccc1C(=O)N1CCN(Cc2cccc(Cl)c2)CC1` [Compound 5], the pIC50 in test [1] is 5.85; in test [2], below 3.89; in test [3], below 3.89.
Take `O=C(c1ccccc1F)N1CCN(Cc2cccc(Br)c2)CC1` [Compound 6]: the pIC50 in test [1] is 4.91; in test [2] it was below 3.89; in test [3], below 3.89.
Turning to `O=C(c1c(F)cccc1F)N1CCN(Cc2ccc(Cl)s2)CC1` [Compound 7], the pIC50 in test [1] is 4.85; in test [2], below 3.89; in test [3], below 3.89.
As to `Cc1csc(CN2CCN(C(=O)c3c(F)cccc3Cl)CC2)n1` [Compound 8], the results for the pIC50 in test [1], in test [2] and in test [3] were 5.72, below 3.89 and below 3.89, respectively.
Turning to `O=C(c1ccccc1F)N1CCN(Cc2nc(C3CC3)cs2)CC1` [Compound 9], the pIC50 was 4.56 in test [1], below 3.89 in test [2] and below 3.89 in test [3].
In the case of `COc1cccc(OC)c1C(=O)N1CCN(Cc2cccc3ccccc23)CC1` [Compound 10], the pIC50 in test [1] was 4.65; in test [2] it was 4.17; in test [3], below 3.89.
Consider `COc1cccc(OC)c1C(=O)N1CCN(Cc2cccc(Br)c2)CC1` [Compound 11], for which the pIC50 in test [1] was 4.61; in test [2], below 3.89; in test [3], below 3.89.
Turning to `O=C(NN1CCN(Cc2ccccc2)CC1)C12CC3CC(CC(C3)C1)C2` [Compound 12], the figures for the pIC50 in test [1], in test [2] and in test [3] were 5.05, below 3.89 and below 3.89, respectively.
Consider `Cc1ccccc1C(=O)N1CCN(c2ccc(NC(=O)c3ccco3)cc2Cl)CC1` [Compound 13], for which the pIC50 in test [1] is 5.46; in test [2], 4.74; in test [3], below 3.89.
For `Cc1ccccc1C(=O)N1CCN(c2ccc(NC(=O)c3cccnc3)cc2Cl)CC1` [Compound 14], the pIC50 was above 6.10 in test [1], 4.89 in test [2] and below 3.89 in test [3].
As to `CCC1CN(C(=O)c2ccc3cc[nH]c3c2)CCC(=O)N1Cc1ccccc1` (stereo not drawn) [Compound 15], the pIC50 in test [1] is above 6.10; in test [2] it was below 3.89; in test [3], below 3.89.
In the case of `CCC1CN(C(=O)c2ccc3c(c2)CCO3)CCC(=O)N1Cc1ccccc1` (stereo not drawn) [Compound 16], the pIC50 in test [1] was 4.81; in test [2], below 3.89; in test [3], below 3.89.
Take `Cc1ccc(F)c(C(=O)N2CCc3nnc(CCc4ccccc4)n3CC2)c1F` [Compound 17]: the values for the pIC50 in test [1], in test [2] and in test [3] were 4.82, below 3.89 and below 3.89, respectively.
As for `CCC(Cn1cnc(-c2ccccc2)c1-c1ccncc1)N1CCOCC1` (stereo not drawn) [Compound 18], the pIC50 in test [1] is 4.66; in test [2] it was below 3.89; in test [3], below 3.89.
As for `Cc1ccn(CCCn2cnc(-c3ccccc3)c2-c2ccncc2)n1` [Compound 19], the pIC50 in test [1] was 5.92; in test [2] it was below 3.89; in test [3], below 3.89.
Regarding `c1ccc(-c2ncn(CCCc3cccnc3)c2-c2ccncc2)cc1` [Compound 20], the values for the pIC50 in test [1], in test [2] and in test [3] were above 6.10, below 3.89 and below 3.89, respectively.
Consider `Nc1cccc(-c2cnc3ccc(NCc4cccs4)nn23)c1` [Compound 21], for which the pIC50 in test [1] was 5.89; in test [2], 3.92; in test [3], below 3.89.
Consider `CNc1ccc2ncc(-c3cccc(O)c3)n2n1` [Compound 22], for which the pIC50 is 4.56 in test [1], 5.06 in test [2] and below 3.89 in test [3].
For `COCC(=O)N1CCCc2ccc(NC(=O)Nc3ccc(F)cc3)cc21` [Compound 23], in that order: 5.43, below 3.89 and below 3.89.
`COc1ccc(Nc2nc(NCCCO)c3ccccc3n2)cc1` [Compound 24]: the results for the pIC50 in test [1], in test [2] and in test [3] were 5.96, below 3.89 and below 3.89, respectively.
Consider `CC(=O)c1cccc(Nc2nc(NCC3CCCO3)c3ccccc3n2)c1` (stereo not drawn) [Compound 25], for which the pIC50 in test [1] is 5.25; in test [2], 4.26; in test [3], below 3.89.
Regarding `Fc1ccc(Nc2nc3nonc3nc2Nc2ccc(F)cc2F)c(F)c1` [Compound 26], the pIC50 in test [1] was 5.85; in test [2], 4.65; in test [3], 4.15.
Turning to `C=C(C)Cn1c(=O)nc(N)c2c(-c3ccc(OC)cc3)csc21` [Compound 27], the values for the pIC50 in test [1], in test [2] and in test [3] were above 6.10, below 3.89 and below 3.89, respectively.
Consider `CCCn1c(=O)nc(N)c2c(-c3ccc(OC)cc3)csc21` [Compound 28], for which the pIC50 in test [1] was 5.77; in test [2], below 3.89; in test [3], below 3.89.
`Cc1ccc(-n2ncc3c(NC4CCCCC4)ncnc32)c(C)c1` [Compound 29]: the values for the pIC50 in test [1], in test [2] and in test [3] were above 6.10, below 3.89 and below 3.89, respectively.
For `C/C(=C\c1c(C)[nH]c2ccccc12)[N+](=O)[O-]` [Compound 30], the values for the pIC50 in test [1], in test [2] and in test [3] were 4.61, 4.92 and below 3.89, respectively.
For `Cc1n[nH]c2c1C(c1ccccc1OC(F)F)C(C#N)=C(N)O2` (stereo not drawn) [Compound 31], in that order: 4.46, 4.49 and below 3.89.
